Test results published in patent US4435404A, “Carbostyril derivatives” (priority 1980, dated 1984).

Experiments:
[1] = system: ADP-induced aggregation in rabbit platelet; assay: Inhibition effect on ADP-induced aggregation in rabbit platelet; assay type: cell-based; conditions: Oryctolagus cuniculus, Platelet
In short: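 Citrated rabbit PRP was diluted with PPP to 300,000 platelets/mm^3 for the ADP test or 450,000/mm^3 for the collagen test. Samples were preincubated with compound for 1 min at 37 °C before adding inducer: ADP solution at 7.5×10^-5 M (stock) or collagen supernatant. Light-transmittance aggregation was recorded at 1,100 rpm stirring, and percent inhibition was calculated against control aggregation rate, with acetylsalicylic acid as reference.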

bastard dog = assay: Increasing effect of cerebral blood flow; assay type: in vivo; conditions: dosage 100 μg/kg, profunda femoris vein
Method: Thus, a bastard dog (male, 12-20 kg of body weight) was fixed in a prone (position) and was anesthetized with 20 mg/kg of pentobarbital sodium and made forced breathing to kept the frequency of respiration at 20 times/minutes. Then, the skull was bared and the surface bone was removed to expose the venous sinus by using grinder and the venous blood was took out from the venas which was cannulizated. The amount of venous blood flow was measured by using an electromagnetic blood flow meter and next measured by using drop-counter by measuring the number of drops of blood per 10 seconds.
The increasing effect of cerebral blood flow was calculated by comparing the number of blood drops in 30 seconds at the peak of increasement shown before and after the administration of compound to be tested. The each of compounds to be tested was dissolved in dimethylformamide and diluted with physiological saline solution and administered through a cannule being inserted into the profunda femoris vein.

Acute Toxicity Test = conditions: mouse, in vivo; male mice, oral administration
Method: The test compounds were administered orally to the mice and LD50 (mg/kg) of the compounds was determined.

For O=C(CCCOc1ccc2[nH]c(=O)ccc2c1)N(CCO)C1CCCCC1 [No. 1, 6-{3-[N-(2-hydroxyethyl)-N-cyclohexylaminocarbonyl]propoxy}carbostyril], the inhibition at 100 µM ([1]; concentration of the test compound solution 10^-4 mole) was 100%, the inhibition at 10 µM ([1]; concentration of the test compound solution 10^-5 mole, read-out: Inhibition effect on ADP-induced aggregation) was 86% and the inhibition at 1 µM ([1]; concentration of the test compound solution 10^-6 mole, read-out: Inhibition effect on ADP-induced aggregation) was 45%. For the same compound, the “Increasing effect of cerebral blood flow” value (bastard dog) was 89.8% and the LD50 (Acute Toxicity Test) was > 1000 mg/kg.
